We go through seven sequences from paper PMC10136189, “A Tale of 12 Tails: Katanin Severing Activity Affected by Carboxy-Terminal Tail Sequences” (Biomolecules, 2023).

For assay [1], the target named is T1, human GFP-katanin p60 (Homo sapiens, UniProt O75449).
T1 construct: made in house; host or cells: Escherichia coli BL21(DE3)
Put plainly: GFP-katanin binding to microtubules (TIRF intensity) in the severing assay. To be noted: inhibitor 0-2 μM; GFP intensity normalized to same day control without inhibitor; pH 7.7, 2 mM ATP. As for the experimental part: (§1) In this work, we use the in vitro microtubule severing assay to quantitatively characterize the microtubule binding and severing ability of human GFP-katanin p60 in the presence of different CTT sequences. First, we ensure that our human GFP-katanin p60 can robustly and reproducibly sever microtubules and completely remove all polymer within 3–5 min (Figure 1A). As each katanin prep has slightly different activity and the activity can fluctuate (Supplemental Figure S1), we perform control experiments each day to determine the optimal katanin concentration needed and to serve as a control without added inhibitors (Figure 1A). For simplicity we use “katanin” to refer to human GFP-katanin p60 for the remainder of this manuscript.
(§2) Flow chambers with 10 μL channels were made by adhering double-stick tape (3M, St. Paul, MN, USA) to a microscope slide and attaching a silanized coverslip cross-wise. Silanized coverslips were UVO sterilized, cleaned with rinses of acetone, ethanol, 0.1 M KOH, and ddH20 before coating with PlusOne Repel-Silane 2% dimethyldichlorosilane (Cytiva, Marlborough, MA, USA). Samples were made in the chambers by flowing through the chamber using a pipette and filter paper to wick from the other side. For severing assays, we first flowed 5% MAB1864 tubulin YL ½ antibody (Merck-Millipore, Billerica, MA, USA) in PEM-100 for three minutes to provide a binding site for microtubules. Second, we flowed 5% (w/v) Pluronic F127 to act as a polymer brush to block the surface, allowing three minutes for incubation. Next, we flowed 10% rhodamine-labeled microtubules diluted 1:100 (final tubulin concentration 454 nM) and allowed them to adhere for three minutes. During the incubation, an aliquot of katanin was rapidly defrosted from −80 °C and diluted to assay concentration. The chamber was then washed with Katanin Activity Buffer (20 mM HEPES pH 7.7, 10% glycerol, 2 mM MgCl2, 2 mM ATP, 0.025 mg/mL BSA, 0.05% F127, 10 mM dithiothreitol (DTT), 15 mg/mL glucose, 0.15 mg/mL catalase, […]) to remove excess unadhered microtubules. The chamber was then situated on the microscope to find a good field for the assay before flowing Katanin Activity Buffer with GFP-katanin and CTT tails at their respective concentrations.
Imaging was performed using epifluorescence and total internal reflection (TIRF) with a home-built laser illumination system around a Nikon Ti-E microscope (Nikon USA, Melville, NY, USA). Epifluorescence was used to image rhodamine microtubules in the red channel, and TIRF was used to image GFP-katanin illuminating with a 488 nm laser. Images were collected with a 60x, oil-coupled TIRF objective with a numerical aperture of 1.49 (Nikon USA, Melville, NY, USA). The two-color imaging was performed using shuttering the red channel (400–800 ms exposure) and green channel (70–200 ms exposure) sequentially. The 5 min movies recorded with 3 s intervals using Nikon Elements software (Nikon USA, Melville, NY, USA) driving an Ixon EMCCD camera (Andor, Belfast, Northern Ireland) with a final pixel size of 160 nm. […]
Each of the 64 treatments were run two to three times for replication and for obtaining 15–20 MTs for analysis. […] Next, the concentration needed to sever microtubules within 2–3 min is determined in the presence of ATP. Once the optimal katanin concentration is determined, the assay is repeated in the absence of ATP to again test the imaging conditions in the presence of a GFP-katanin binding to microtubules. […]

Assay [2] concerns the target T1, human GFP-katanin p60. Put plainly: in vitro microtubule severing assay (loss of microtubule polymer). Type of assay: biochemical. As to conditions: for inhibition of katanin severing of microtubules (loss of polymer) / relative potency as inhibitor of katanin binding and severing (comparison in words): inhibitor 0-2 μM; for inhibition of katanin severing of microtubules (loss of polymer): taxol-stabilized rhodamine microtubules, Katanin Activity Buffer pH 7.7, 2 mM ATP, 5 min movies; for relative potency as inhibitor of katanin binding and severing (comparison in words): compared with other CTTs or whole tubulin. The procedure:
as §1, §2
Imaging was performed using epifluorescence and total internal reflection (TIRF) with a home-built laser illumination system around a Nikon Ti-E microscope (Nikon USA, Melville, NY, USA). Epifluorescence was used to image rhodamine microtubules in the red channel, and TIRF was used to image GFP-katanin illuminating with a 488 nm laser. Images were collected with a 60x, oil-coupled TIRF objective with a numerical aperture of 1.49 (Nikon USA, Melville, NY, USA). The two-color imaging was performed using shuttering the red channel (400–800 ms exposure) and green channel (70–200 ms exposure) sequentially. The 5 min movies recorded with 3 s intervals using Nikon Elements software (Nikon USA, Melville, NY, USA) driving an Ixon EMCCD camera (Andor, Belfast, Northern Ireland) with a final pixel size of 160 nm. Movie data were saved as a 16-bit time series as nd2 files with metadata. Movies were started recording before the GFP-katanin mixture was flowed while imaging. After the 5 min, a new field of view was imaged to ensure that the loss of microtubule polymer was universal in the chamber and not due to imaging conditions.
Each of the 64 treatments were run two to three times for replication and for obtaining 15–20 MTs for analysis. Four control chambers were run each day to ensure chamber activity was caused by the respective treatment conditions. […] Next, the concentration needed to sever microtubules within 2–3 min is determined in the presence of ATP. Once the optimal katanin concentration is determined, the assay is repeated in the absence of ATP to again test the imaging conditions in the presence of a GFP-katanin binding to microtubules. […]

T1 sequence (O75449 whole entry): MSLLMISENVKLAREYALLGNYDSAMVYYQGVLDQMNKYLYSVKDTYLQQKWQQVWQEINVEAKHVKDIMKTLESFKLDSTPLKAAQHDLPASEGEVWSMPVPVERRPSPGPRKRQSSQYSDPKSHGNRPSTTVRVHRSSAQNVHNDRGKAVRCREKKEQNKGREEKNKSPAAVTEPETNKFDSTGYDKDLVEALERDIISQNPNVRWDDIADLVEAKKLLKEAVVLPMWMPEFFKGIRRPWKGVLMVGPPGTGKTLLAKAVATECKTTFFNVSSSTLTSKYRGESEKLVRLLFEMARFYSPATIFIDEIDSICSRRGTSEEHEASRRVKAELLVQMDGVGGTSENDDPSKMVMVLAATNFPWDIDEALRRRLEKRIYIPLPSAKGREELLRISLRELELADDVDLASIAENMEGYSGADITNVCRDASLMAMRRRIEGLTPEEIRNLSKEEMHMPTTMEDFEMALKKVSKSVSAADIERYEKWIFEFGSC

Regarding A T A DDDDDDDDDD [D10], the “inhibition of GFP-katanin binding to microtubules” value (“inhibition of GFP-katanin binding” for short) on human GFP-katanin p60 [1] was “can inhibit”. Further, the “inhibition of katanin severing of microtubules (loss of polymer)” value (from here on “inhibition … (loss of polymer)”) against human GFP-katanin p60 [2] is listed as “can inhibit”.
For the sequence “DSFEEENEGEEF [alpha8, human alpha8 tubulin tail, only alpha tail with a C-terminal F; hydrophobicity calculated, not tested]”, on human GFP-katanin p60 [2] (prediction from hydrophobicity and C-terminal phenylalanine, not tested), the “predicted ability to inhibit katanin severing” value is listed as “unable to inhibit katanin severing”.
Take A T A EEEEEEEEEE [E10]: at human GFP-katanin p60 [1], the “inhibition of GFP-katanin binding” value is “can inhibit”. Further, the “inhibition … (loss of polymer)” value at human GFP-katanin p60 [2] is reported as “can inhibit”.
Regarding “A T A EEEED F G EE A EEE A [Beta5 (TUNN/TUBB5)]”, the “relative potency as inhibitor of katanin binding and severing (comparison in words)” value at human GFP-katanin p60 [2] (listed as beta5 CTT) was “most potent inhibitor of the CTTs we tested”; at human GFP-katanin p60 [2] (listed as beta5 tubulin CTT) it was “better at inhibiting katanin than whole tubulin”. The “inhibition … (loss of polymer)” value at human GFP-katanin p60 [2] is listed as “severing is inhibited”.
For “A T A EEEED F G EE A EEE Y [Beta5-A+Y, artificial beta5 CTT with the last amino acid (A) replaced with a tyrosine]”, the “inhibition of GFP-katanin binding” value on human GFP-katanin p60 [1] is recorded as “does not affect katanin binding”. Besides, on human GFP-katanin p60 [2], the “inhibition … (loss of polymer)” value was “far less potent as a katanin inhibitor”.
The matching figures for “A T A DE Q G E F EEEE G EDE A [Beta2 (TUBB2A)]”: “more beta2a CTT is needed to inhibit” and “more beta2a CTT is needed to inhibit”.
For “A T A EEEED M Y EDDDEE S E A Q G P K [Beta3 (TUBB3)]” the same measures were “little inhibition of GFP-katanin binding” and “cannot inhibit katanin severing”.
